# Results from patent US20010012893A1, “Acyclovir diester derivatives” (Drug Innovation & Design, Inc., priority 1997, published 2001).
# Entries after “also recorded” stand apart in the source; their conditions may differ.
# How the values were obtained:
# HSV-1 = assay: Dermal HSV-1 infection in guinea pigs, topical treatment, compared with placebo/vehicle; assay type: in vivo; settings: guinea pig; for reduction in lesion area (in words) / reduction in lesion number (in words) / reduction in lesion virus titer / skin viral titres (in words): dermal HSV-1, topical, compared to vehicle or to Prodrug 1
# Protocol: The formulation for Prodrug 1 contained 5% EL-620 EMULPHOR (polyoxyethylated castor oil) (Rhone Poluenc), 5% CARBOPOL (Carboxypolymethylene, sodium salt) (B. F. Goodrich), 10% ethanol and 2% by weight Prodrug 1. The balance of the formulation consisted of water.
# EL-620 EMULPHOR and water were mixed and ultrasonicated to give a clear emulsion, to which the ethanol was added. The prodrug was then added, and the mixture was ultrasonicated. The sodium carbopol was then added to the emulsion and mixed until to homogeneity.
# The placebo was prepared identically to the pharmaceutical compositions except that the prodrugs were omitted.
# Female Hartley outbred guinea pigs, 400 to 450 grams, were obtained from Charles River Breeding Labs, Wilmington, Mass. Animals were anesthetized with 25 mg/kg ketamine and 5 mg/kg xylazine SQ. Hair on the dorsum from the shoulders to the rump was removed with electric clippers followed by two 5-10 minute applications of a chemical depilatory. A grid of four areas was demarcated with a pen on both sides of the spine at levels corresponding to mid back and rump.
# Undiluted HSV-1 virus stock (0.035 ml) was applied to each different area and introduced through the skin at well-spaced sites at ten activations of a six-pronged spring-loaded vaccination instrument (Sterneedle, Pan Ray Division, Ormont Drug, Englewood, N.J.). The day of inoculation is Day 0. Approximately 250 mg of drug or placebo was applied to the areas according to the dosing regimen on Days 1, 2 and 3. Eight guinea pigs were used during the experiments allowing eight comparisons between each drug and its placebo.
# On Day 4 regrown hair on the dorsum of the guinea pigs was removed with one 3-4 minute application of a chemical depilatory. HSV lesions were counted and Polaroid pictures of the animals' backs were taken. The animals were sacrificed using CO2 gas and the full thickness skin of the back was removed by dissection. The square of the skin from each of the four treatment areas was placed into 15 mls of tissue culture medium with 2% FBS in an ice bath. The samples were then homogenized in a stomacher Lab Blender 80 (Tekmar Co.). Debris was pelleted by centrifugation and the supernatants collected and frozen at −70° C. until assay for infectivity by plaque formation in VERO cells.
# The mean and standard deviation for number of lesions, total lesion area and lesion virus titer were computed. Paired data (drug/vehicle) were evaluated by the Wilcoxon signed-rank test using percent differences between log10 derivatives of mean lesions severity at drug-treated sites compared to the vehicle-treated sites.
# Prodrug 2 was formulated as described in Example 1. One Hartley guinea pig was inoculated with HSV-1 as described in Example 1. The guinea pig was treated with Prodrug 2 according to the protocol used in Example 1 for Prodrug 1.
# herpes simplex labialis = settings: cited from earlier work
# pig liver esterase = assay: Incubation with pig liver esterase in phosphate buffered D2O, followed by NMR; assay type: in vitro ADME
# Description: This assay is described in Glazier, WO 91/19721 entitled “Phosphorus Prodrugs” and can be used to determine suitable hydroxyl or amino protecting groups which can be cleaved in vivo. The entire teachings of […] are incorporated herein by reference. It is to be understood that there are other in vitro assays known to one of ordinary skill in the art employing esterases, amidases or enzymes capable of cleaving carbonate, carbamate, ester and amide groups which can also be used to determine suitable protecting groups.
# [1] = dermal HSV-1, topical 2% formulation, Days 1-3, read Day 4, p<0.01
Structure (SMILES),reduction in lesion area (in words) (HSV-1),reduction in lesion number (in words) (HSV-1),reduction in lesion virus titer / skin viral titres (in words) (HSV-1),effectiveness of oral administration for cold sores (herpes simplex labialis; oral),response of cold sores to topical treatment (herpes simplex labialis; topical),reduction in lesion area compared with placebo (HSV-1; [1]) [%],reduction in lesion number compared with placebo (HSV-1; [1]) [%],"reduction in skin viral titres compared with placebo (HSV-1; dermal HSV-1, topical 2% formulation, Days 1-3, read Day 4, plaque formation in VERO cells, p<0.01) [%]",degradation products with esterase (pig liver esterase)
COC(=O)CC(OP(=O)([O-])OCCOCn1cnc2c(=O)[nH]c(N)nc21)c1ccc(OC(C)=O)cc1.[Na+] (stereo not drawn) [Prodrug 2],comparable reduction; also recorded: dramatic reduction,comparable reduction; also recorded: dramatic reduction,comparable reduction; also recorded: dramatic reduction,,,,,,
Nc1nc2c(ncn2COCCO)c(=O)[nH]1 [acyclovir],,,,only partially effective,do not respond,,,,
COC(=O)CC(OP(=O)([O-])OCCOCn1cnc2c(=O)[nH]c(N)nc21)c1ccc(OC(=O)C(C)(C)C)cc1.[Na+] (stereo not drawn) [Prodrug 1],dramatic reduction,dramatic reduction,dramatic reduction,,,79,72,93,degraded to acyclovir monophosphate and p-hydroxycinnamic
